Reference: patent US20240018166A1, “SULFONYL UREA NLRP3 INFLAMMASOME INHIBITORS” (Venatorx Pharmaceuticals, Inc., priority 2020, published 2024)

How the values were obtained:
IL-1β = IL-1β inhibition assay (ELISA/HTRF of culture supernatants); format: cell-based; conditions: Homo sapiens, PMA-differentiated THP-1 cells, tested 10 μM to 0.003 μM
Experimental: Human monocyte-like THP-1 cells were grown in RPMI media supplemented with 10% FBS (growth media) at 37° C., 5% CO2. Cell cultures were passaged every three days and maintained at a density of 5×10^5 to 1×10^6 cells per mL.
Compounds were prepared as 10 mM stock solutions in 100% DMSO. […] Each 200× dilution was then diluted 20-fold in growth media (step down dilution) to yield a 10× final assay concentration range. All compounds were tested over a final assay concentration range of 10 μM to 0.003 μM.
The level of IL-10 in supernatants from PMA-differentiated THP-1 cells was determined by ELISA using either the R&D Systems Human IL-1 beta/IL-1F2 Quantikine ELISA or the cisbio HTRF human IL 1 beta kit. Manufacturer's protocols were followed without deviation.
Background values were subtracted and resulting values were converted to percentage of vehicle-treated controls. Data was analyzed via GraphPad Prism 7.0 using a non-linear regression (variable slope (four-parameter)) equation.
Table 2 provides IL-10 ELISA EC50 values for example compounds. A indicates EC50>10 μM; B indicates EC50 between 1 and 10 μM (inclusive); C indicates EC50<1 μM.

[1] = MTT cell viability assay, THP-1 cells; format: cell-based; conditions: human, unstimulated THP-1 cells, read-out: THP-1 Cytotoxicity CC50
Experimental: In order to assess the cytotoxicity of the compounds, an MTT cell viability assay was performed in either unstimulated THP-1 or HepG2 cells as follows. 5×10^4 THP-1 or 5×10^3 HepG2 cells were seeded into each well of a 96-well plate in 90 μL of media. Compounds were added to cells as described for the IL-10 assay and returned to the incubator for an additional 72 hours. Next, 25 μL of MTT solution (5 mg/mL in sterile PBS) was added to each well. Plates were incubated for 3 hours at 37° C., 5% CO2. Next, for THP-1 cells, 100 μl of MTT solubilization solution (40% Dimethylformamide, 2% glacial acetic acid, 16% sodium dodecyl sulfate) was then added to each well and plates were incubated at room temperature in the dark overnight. For HepG2 cells, media was aspirated, 50 μL of DMSO was added and plates were mixed briefly with an orbital plate shaker. Absorbance at 570 nm was measured using a Perkin-Elmer EnVision plate reader.
Absorbance values were converted to percentage of vehicle-treated controls. Data was then analyzed using a non-linear regression (variable slope (four-parameter)) equation in GraphPad Prism 7.0.
Table 2 provides THP-1 cytotoxicity assay CC50 values for example compounds. A indicates CC50>10 μM; B indicates CC50 between 1 and 10 μM (inclusive); C indicates CC50<1 μM. NT, not tested.

| SMILES | EC50 (IL-1β) | CC50 at 72 h [1] |
| --- | --- | --- |
| C[N+]12CCO[B-]1(c1cccc(S(=O)(=O)NC(=O)Nc3c4c(cc5c3CCC5)CCC4)c1)OCC2 (stereo not shown) [Example 28, N-((1,2,3,5,6,7-hexahydro-s-indacen-4-yl)carbamoyl)-3-(4-methyltetrahydro-2H-414,814-[1,3,2]oxazaborolo[2,3-b][1,3,2]oxazaborol-8-yl)benzenesulfonamide] | < 1 µM | > 10 µM |
| CC(C)c1cc(B2OC(C)(C)C(C)(C)O2)cc(C(C)C)c1NC(=O)NS(=O)(=O)c1ccn(C(C)C)n1 [Example 30, N-((2,6-diisopropyl-4-(4,4,5,5-tetramethyl-1,3,2-dioxaborolan-2-yl)phenyl)carbamoyl)-1-isopropyl-1H-pyrazole-3-sulfonamide] | 1 to 10 µM | > 10 µM |
| CC(C)c1cc(B(O)O)cc(C(C)C)c1NC(=O)NS(=O)(=O)c1ccn(C(C)C)n1 [Example 31, (3,5-diisopropyl-4-(3-((1-isopropyl-1H-pyrazol-3-yl)sulfonyl)ureido)phenyl)boronic acid] | > 10 µM | > 10 µM |
| COc1ccc(S(=O)(=O)NC(=O)Nc2c3c(cc4c2CCC4)CCC3)cc1CCB1OC(C)(C)C(C)(C)O1 [Example 32, N-((1,2,3,5,6,7-hexahydro-s-indacen-4-yl)carbamoyl)-4-methoxy-3-(2-(4,4,5,5-tetramethyl-1,3,2-dioxaborolan-2-yl)ethyl)benzenesulfonamide] | 1 to 10 µM | > 10 µM |
| O=C(Nc1c2c(cc3c1CCC3)CCC2)NS(=O)(=O)c1cc(F)cc2c1B(O)OC2 [Example 34, 5-fluoro-N-((1,2,3,5,6,7-hexahydro-s-indacen-4-yl)carbamoyl)-1-hydroxy-1,3-dihydrobenzo[c][1,2]oxaborole-7-sulfonamide] | 1 to 10 µM | > 10 µM |
| O=C(Nc1c2c(cc3c1CCC3)CCC2)NS(=O)(=O)c1ccc(O)c(CCCB(O)O)c1 [Example 37, (3-(5-(N-((1,2,3,5,6,7-hexahydro-s-indacen-4-yl)carbamoyl)sulfamoyl)-2-hydroxyphenyl)propyl)boronic acid] | 1 to 10 µM | > 10 µM |
| COc1ccc(S(=O)(=O)NC(=O)Nc2c3c(cc4c2CCC4)CCC3)cc1CB(O)O [Example 39, (5-(N-((1,2,3,5,6,7-hexahydro-s-indacen-4-yl)carbamoyl)sulfamoyl)-2-methoxybenzyl)boronic acid] | 1 to 10 µM | > 10 µM |
| O=C(Nc1c2c(cc3c1CCC3)CCC2)NS(=O)(=O)c1ccc(CCCB(O)O)c(O)c1 [Example 40, (3-(4-(N-((1,2,3,5,6,7-hexahydro-s-indacen-4-yl)carbamoyl)sulfamoyl)-2-hydroxyphenyl)propyl)boronic acid] | 1 to 10 µM | > 10 µM |
| COc1cc(S(=O)(=O)NC(=O)Nc2c3c(cc4c2CCC4)CCC3)ccc1CB1O[C@@H]2C[C@@H]3C[C@@H](C3(C)C)[C@]2(C)O1 [Example 42, N-((1,2,3,5,6,7-hexahydro-s-indacen-4-yl)carbamoyl)-3-methoxy-4-(((3aS,4S,6S,7aR)-3a,5,5-trimethylhexahydro-4,6-methanobenzo[d][1,3,2]dioxaborol-2-yl)methyl)benzenesulfonamide] | < 1 µM | > 10 µM |
| COc1ccc(S(=O)(=O)NC(=O)Nc2c3c(cc4c2CCC4)CCC3)cc1CCCB1OC(C)(C)C(C)(C)O1 [Example 45, N-((1,2,3,5,6,7-hexahydro-s-indacen-4-yl)carbamoyl)-4-methoxy-3-(3-(4,4,5,5-tetramethyl-1,3,2-dioxaborolan-2-yl)propyl)benzenesulfonamide] | 1 to 10 µM | > 10 µM |
| CC1(C)OB(CCCc2cccc(S(=O)(=O)NC(=O)Nc3c4c(cc5c3CCC5)CCC4)c2)OC1(C)C [Example 46, N-((1,2,3,5,6,7-hexahydro-s-indacen-4-yl)carbamoyl)-3-(3-(4,4,5,5-tetramethyl-1,3,2-dioxaborolan-2-yl)propyl)benzenesulfonamide] | 1 to 10 µM | > 10 µM |
| CC1(C)[C@@H]2C[C@H]3OB(CCCc4ccc(S(=O)(=O)NC(=O)Nc5c6c(cc7c5CCC7)CCC6)cc4O)O[C@@]3(C)[C@H]1C2 [Example 48, N-((1,2,3,5,6,7-hexahydro-s-indacen-4-yl)carbamoyl)-3-hydroxy-4-(3-((3aS,4S,6S,7aR)-3a,5,5-trimethylhexahydro-4,6-methanobenzo[d][1,3,2]dioxaborol-2-yl)propyl)benzenesulfonamide] | 1 to 10 µM | > 10 µM |
| CC1(C)[C@@H]2C[C@H]3OB(CCCc4cc(S(=O)(=O)NC(=O)Nc5c6c(cc7c5CCC7)CCC6)ccc4O)O[C@@]3(C)[C@H]1C2 [Example 49, N-((1,2,3,5,6,7-hexahydro-s-indacen-4-yl)carbamoyl)-4-hydroxy-3-(3-((3aS,4S,6S,7aR)-3a,5,5-trimethylhexahydro-4,6-methanobenzo[d][1,3,2]dioxaborol-2-yl)propyl)benzenesulfonamide] | 1 to 10 µM | > 10 µM |
| COc1ccc(S(=O)(=O)NC(=O)Nc2c3c(cc4c2CCC4)CCC3)cc1CCCB1O[C@@H]2C[C@@H]3C[C@@H](C3(C)C)[C@]2(C)O1 [Example 50, N-((1,2,3,5,6,7-hexahydro-s-indacen-4-yl)carbamoyl)-4-methoxy-3-(3-((3aS,4S,6S,7aR)-3a,5,5-trimethylhexahydro-4,6-methanobenzo[d][1,3,2]dioxaborol-2-yl)propyl)benzenesulfonamide] | 1 to 10 µM | > 10 µM |

More lines, main results first:

| EC50 (IL-1β) | SMILES | CC50 at 72 h [1] |
| --- | --- | --- |
| < 1 µM | O=C(Nc1c2c(cc3c1CCC3)CCC2)NS(=O)(=O)c1ccc2c(c1)COB2O [Example 29, N-((1,2,3,5,6,7-hexahydro-s-indacen-4-yl)carbamoyl)-1-hydroxy-1,3-dihydrobenzo[c][1,2]oxaborole-5-sulfonamide] | > 10 µM |
| 1 to 10 µM | O=C(Nc1c2c(cc3c1CCC3)CCC2)NS(=O)(=O)c1ccc2c(c1)CCB(O)O2 [Example 33, N-((1,2,3,5,6,7-hexahydro-s-indacen-4-yl)carbamoyl)-2-hydroxy-3,4-dihydro-2H-benzo[e][1,2]oxaborinine-6-sulfonamide] | > 10 µM |
| > 10 µM | COC(=O)c1ccc(S(=O)(=O)NC(=O)Nc2c3c(cc4c2CCC4)CCC3)cc1B(O)O [Example 35, (5-(N-((1,2,3,5,6,7-hexahydro-s-indacen-4-yl)carbamoyl)sulfamoyl)-2-(methoxycarbonyl)phenyl)boronic acid] | > 10 µM |
| > 10 µM | O=C(Nc1c2c(cc3c1CCC3)CCC2)NS(=O)(=O)c1ccc2c(c1)B(O)OC2=O [Example 36, N-((1,2,3,5,6,7-hexahydro-s-indacen-4-yl)carbamoyl)-1-hydroxy-3-oxo-1,3-dihydrobenzo[c][1,2]oxaborole-6-sulfonamide] | > 10 µM |
| 1 to 10 µM | O=C(Nc1c2c(cc3c1CCC3)CCC2)NS(=O)(=O)c1ccc(O)c(CB(O)O)c1 [Example 38, (5-(N-((1,2,3,5,6,7-hexahydro-s-indacen-4-yl)carbamoyl)sulfamoyl)-2-hydroxybenzyl)boronic acid] | > 10 µM |
| 1 to 10 µM | O=C(Nc1c2c(cc3c1CCC3)CCC2)NS(=O)(=O)c1ccc2c(c1)OB(O)CC2 [Example 41, N-((1,2,3,5,6,7-hexahydro-s-indacen-4-yl)carbamoyl)-2-hydroxy-3,4-dihydro-2H-benzo[e][1,2]oxaborinine-7-sulfonamide] | > 10 µM |
| 1 to 10 µM | COc1ccc(S(=O)(=O)NC(=O)Nc2c3c(cc4c2CCC4)CCC3)cc1B(O)O [Example 43, (5-(N-((1,2,3,5,6,7-hexahydro-s-indacen-4-yl)carbamoyl)sulfamoyl)-2-methoxyphenyl)boronic acid] | > 10 µM |
| 1 to 10 µM | O=C(Nc1c2c(cc3c1CCC3)CCC2)NS(=O)(=O)c1ccc(CB(O)O)c(O)c1 [Example 44, (4-(N-((1,2,3,5,6,7-hexahydro-s-indacen-4-yl)carbamoyl)sulfamoyl)-2-hydroxybenzyl)boronic acid] | > 10 µM |
| 1 to 10 µM | CC1(C)OB(O)c2cc(S(=O)(=O)NC(=O)Nc3c4c(cc5c3CCC5)CCC4)ccc21 [Example 47, N-((1,2,3,5,6,7-hexahydro-s-indacen-4-yl)carbamoyl)-1-hydroxy-3,3-dimethyl-1,3-dihydrobenzo[c][1,2]oxaborole-6-sulfonamide] | > 10 µM |
